Our source for the IC50 values is patent publication US11247990B1, “Bicyclic fused pyridine compounds as inhibitors of TAM kinases” (ARRAY BIOPHARMA INC., priority 2017, dated 2022).

Common to all, as to settings: averaged IC50
For experiment [1], the target named is His-tagged recombinant human AXL cytoplasmic domain (Homo sapiens (Human), UniProt P30530). Nature of the experiment: AXL Enzyme Assay (LanthaScreen Eu Kinase Binding, TR-FRET). An outline of the steps: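 Compound displacement measured by TR-FRET after 60 min at 22 °C, using Eu-based LanthaScreen binding technology. Ratiometric emission converted to percent of control, fitted to a 4-parameter logistic curve, with IC50 at 50 POC.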
On the technique in general: TR-FRET usually uses a lanthanide donor and a delayed reading to cut background.

Experiment [2] has as its target GST-tagged recombinant human TYRO3 kinase domain (Homo sapiens (Human), UniProt Q06418). Nature of the experiment: TYRO3 Enzyme Assay (LanthaScreen Eu Kinase Binding, TR-FRET). An outline of the steps: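 LanthaScreen Eu binding (tracer displacement) format read by TR-FRET after 60 min at 22 °C. Emission ratio converted to percent of control; IC50 taken where a 4-parameter logistic fit crosses 50 POC.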

Experiment [3] concerns the target His-tagged recombinant human MER cytoplasmic domain (Homo sapiens (Human), UniProt Q12866). Nature of the experiment: MER Enzyme Assay (LanthaScreen Eu Kinase Binding, TR-FRET). In a few lines:
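Percent of control, derived from ratiometric TR-FRET emission, was fitted to a 4-parameter logistic curve and IC50 taken at 50 POC. Binding was read after 60 min at 22 °C using Eu-based LanthaScreen technology and recombinant His-tagged MER cytoplasmic domain.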

Chain of GST-tagged recombinant human TYRO3 kinase domain (Q06418 518-790): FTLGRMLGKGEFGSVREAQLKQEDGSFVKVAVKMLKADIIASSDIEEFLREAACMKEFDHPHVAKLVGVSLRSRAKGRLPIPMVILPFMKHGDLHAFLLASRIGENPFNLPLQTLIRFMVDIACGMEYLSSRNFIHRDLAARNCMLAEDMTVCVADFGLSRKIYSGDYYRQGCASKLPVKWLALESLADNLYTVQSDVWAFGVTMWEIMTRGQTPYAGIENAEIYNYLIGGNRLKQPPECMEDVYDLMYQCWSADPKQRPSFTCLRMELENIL
Chain of His-tagged recombinant human MER cytoplasmic domain (Q12866 527-999): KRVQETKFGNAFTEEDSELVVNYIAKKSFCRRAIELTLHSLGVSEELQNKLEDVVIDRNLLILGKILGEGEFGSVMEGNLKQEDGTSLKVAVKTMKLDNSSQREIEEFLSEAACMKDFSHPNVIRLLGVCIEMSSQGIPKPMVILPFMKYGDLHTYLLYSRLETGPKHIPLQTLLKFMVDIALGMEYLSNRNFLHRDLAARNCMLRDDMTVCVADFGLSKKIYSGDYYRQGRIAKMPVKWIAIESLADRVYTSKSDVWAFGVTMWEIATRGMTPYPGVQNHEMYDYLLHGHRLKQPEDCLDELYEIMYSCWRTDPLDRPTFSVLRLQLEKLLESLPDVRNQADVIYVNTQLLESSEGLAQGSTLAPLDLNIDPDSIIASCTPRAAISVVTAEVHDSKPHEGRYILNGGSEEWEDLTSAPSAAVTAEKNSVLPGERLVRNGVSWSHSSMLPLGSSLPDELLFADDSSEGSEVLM
Chain of His-tagged recombinant human AXL cytoplasmic domain (P30530 473-894): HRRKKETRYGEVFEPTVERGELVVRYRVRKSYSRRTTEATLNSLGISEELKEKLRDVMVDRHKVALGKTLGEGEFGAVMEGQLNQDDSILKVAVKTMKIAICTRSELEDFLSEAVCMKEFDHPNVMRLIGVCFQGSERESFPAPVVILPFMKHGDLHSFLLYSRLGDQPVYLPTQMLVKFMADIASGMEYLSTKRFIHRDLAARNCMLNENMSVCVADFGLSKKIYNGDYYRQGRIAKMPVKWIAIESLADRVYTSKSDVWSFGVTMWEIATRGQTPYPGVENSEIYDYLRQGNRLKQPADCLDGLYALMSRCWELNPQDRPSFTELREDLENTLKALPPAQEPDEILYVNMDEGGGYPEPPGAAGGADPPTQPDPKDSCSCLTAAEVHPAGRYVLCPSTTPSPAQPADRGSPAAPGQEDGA

In the case of `CCNc1cc2c(cn1)c(N1CC[C@H](N(C)C)C1)nn2[C@H]1CC[C@@H](Oc2nccc(C(F)(F)F)c2F)CC1` [Example 335, 3-((S)-3-(dimethylamino)pyrrolidin-1-yl)-N-ethyl-1-((1s,4R)-4-((3-fluoro-4-(trifluoromethyl)pyridin-2-yl)oxy)cyclohexyl)-1H-pyrazolo[4,3-c]pyridin-6-amine], the IC50 is less than 10 nM in experiment [1], 10 to 100 nM in experiment [2] and less than 10 nM in experiment [3].

As to `CCNc1cc2c(cn1)c(N1CC[C@H](O)C1)nn2[C@H]1CC[C@@H](Oc2nccc(C(F)(F)F)c2F)CC1` [Example 336, (S)-1-(6-(ethylamino)-1-((1s,4R)-4-((3-fluoro-4-(trifluoromethyl)pyridin-2-yl)oxy)cyclohexyl)-1H-pyrazolo[4,3-c]pyridin-3-yl)pyrrolidin-3-ol], the values for the IC50 in experiment [1], in experiment [2] and in experiment [3] were less than 10 nM, 10 to 100 nM and less than 10 nM, respectively.

With `CCNc1cc2c(cn1)c(N1CCC[C@H](NC)C1)nn2[C@H]1CC[C@@H](Oc2nccc(C(F)(F)F)c2F)CC1` [Example 338, N-ethyl-1-((1s,4R)-4-((3-fluoro-4-(trifluoromethyl)pyridin-2-yl)oxy)cyclohexyl)-3-((S)-3-(methylamino)piperidin-1-yl)-1H-pyrazolo[4,3-c]pyridin-6-amine], the results for the IC50 in experiment [1], in experiment [2] and in experiment [3] were less than 10 nM, 10 to 100 nM and less than 10 nM, respectively.

For `CCNc1cc2c(cn1)c(N1CC[C@@H](NC)C1)nn2[C@H]1CC[C@@H](Oc2nccc(C(F)(F)F)c2F)CC1` [Example 339, N-ethyl-1-((1s,4S)-4-((3-fluoro-4-(trifluoromethyl)pyridin-2-yl)oxy)cyclohexyl)-3-((R)-3-(methylamino)pyrrolidin-1-yl)-1H-pyrazolo[4,3-c]pyridin-6-amine], the IC50 in experiment [1], in experiment [2] and in experiment [3] was less than 10 nM in each case.

For the molecule `CCNc1cc2c(cn1)c(N1CC3COCC3C1)nn2[C@H]1CC[C@@H](Oc2nccc(C(F)(F)F)c2F)CC1` (stereo partly drawn) [Example 342, N-ethyl-1-((1s,4s)-4((3-fluoro-4-(trifluoromethyl)pyridin-2-yl)oxy)cyclohexyl)-3-(tetrahydro-1H-furo[3,4-c]pyrrol-5(3H)-yl)-1H-pyrazolo[4,3-c]pyridin-6-amine], the IC50 in experiment [1] is less than 10 nM; in experiment [2], 10 to 100 nM; in experiment [3], less than 10 nM.

For `CCNc1cc2c(cn1)c(N1CCNCC1)nn2[C@H]1CC[C@@H](Oc2nccc(C(F)(F)F)c2F)CC1` [Example 343, N-ethyl-1-((1s,4s)-4((3-fluoro-4-(trifluoromethyl)pyridin-2-yl)oxy)cyclohexyl)-3-(piperazin-1-yl)-1H-pyrazolo[4,3-c]pyridin-6-amine], the IC50 in experiment [1], in experiment [2] and in experiment [3] was less than 10 nM each time.

As to `CCNc1cc2c(cn1)c(N1CCC(NC)CC1)nn2[C@H]1CC[C@@H](Oc2nccc(C(F)(F)F)c2F)CC1` [Example 344, N-ethyl-1-((1s,4s)-4((3-fluoro-4-(trifluoromethyl)pyridin-2-yl)oxy)cyclohexyl)-3-(4-(methylamino)piperidin-1-yl)-1H-pyrazolo[4,3-c]pyridin-6-amine], the results for the IC50 in experiment [1], in experiment [2] and in experiment [3] were less than 10 nM, 10 to 100 nM and less than 10 nM, respectively.

With `CCNc1cc2c(cn1)c(N1CCC(N(C)C)CC1)nn2[C@H]1CC[C@@H](Oc2nccc(C(F)(F)F)c2F)CC1` [Example 345, 3-(4-(dimethylamino)piperidin-1-yl)-N-ethyl-1-((1s,4s)-4-((3-fluoro-4-(trifluoromethyl)pyridin-2-yl)oxy)cyclohexyl)-1H-pyrazolo[4,3-c]pyridin-6-amine], the IC50 was less than 10 nM in experiment [1], 10 to 100 nM in experiment [2] and less than 10 nM in experiment [3].

Regarding `CCNc1cc2c(cn1)c(-c1cnn(C)c1)nn2[C@H]1CC[C@@H](Oc2nccc(C)c2F)CC1` [Example 346, N-ethyl-1-((1s,4s)-4-((3-fluoro-4-methylpyridin-2-yl)oxy)cyclohexyl)-3-(1-methyl-1H-pyrazol-4-yl)-1H-pyrazolo[4,3-c]pyridin-6-amine], the IC50 is less than 10 nM in experiment [1], 10 to 100 nM in experiment [2] and less than 10 nM in experiment [3].

For `CCNc1cc2c(cn1)c(-c1cnn(C)c1)nn2[C@H]1CC[C@@H](Oc2nccc(N(C)C)c2F)CC1` [Example 349, 1-((1s,4s)-4-((4-(dimethylamino)-3-fluoropyridin-2-yl)oxy)cyclohexyl)-N-ethyl-3-(1-methyl-1H-pyrazol-4-yl)-1H-pyrazolo[4,3-c]pyridin-6-amine], the IC50 in experiment [1] was less than 10 nM; in experiment [2], 100 to 1000 nM; in experiment [3] it was less than 10 nM.

In the case of `CCNc1cc2c(cn1)c(-c1cnn(C)c1)nn2[C@H]1CC[C@@H](Oc2nccc(C(F)(F)F)c2N(C)C)CC1` [Example 350, 1-((1s,4s)-4-((3-(dimethylamino)-4-(trifluoromethyl)pyridin-2-yl)oxy)cyclohexyl)-N-ethyl-3-(1-methyl-1H-pyrazol-4-yl)-1H-pyrazolo[4,3-c]pyridin-6-amine], the IC50 is less than 10 nM in experiment [1], 10 to 100 nM in experiment [2] and less than 10 nM in experiment [3].

Take `CCNc1cc2c(cn1)c([C@H]1CC[C@@H](N(C)C)CC1)nn2[C@H]1CC[C@@H](Oc2nccc(C(F)(F)F)c2F)CC1` [Example 351, 3-((1s,4S)-4-(dimethylamino)cyclohexyl)-N-ethyl-1-((1s,4S)-4-((3-fluoro-4-(trifluoromethyl)pyridin-2-yl)oxy)cyclohexyl)-1H-pyrazolo[4,3-c]pyridin-6-amine]: the IC50 in experiment [1], in experiment [2] and in experiment [3] was less than 10 nM each time.

Turning to `CCNc1cc2c(cn1)c(-c1cnn(C)c1)nn2[C@H]1CC[C@@H](Oc2nccc(C#N)c2F)CC1` [Example 352, 2-(((1s,4s)-4-(6-(ethylamino)-3-(1-methyl-1H-pyrazol-4-yl)-1H-pyrazolo[4,3-c]pyridin-1-yl)cyclohexyl)oxy)-3-fluoroisonicotinonitrile], the figures for the IC50 in experiment [1], in experiment [2] and in experiment [3] were less than 10 nM, 10 to 100 nM and less than 10 nM, respectively.

As for `CNc1cc2c(cn1)c(-c1cnn(C(C)(C)C#N)c1)nn2[C@H]1CC[C@@H](Oc2cccc(F)c2F)CC1` [Example 369, 2-(4-(1-((1s,4s)-4-(2,3-difluorophenoxy)cyclohexyl)-6-(methylamino)-1H-pyrazolo[4,3-c]pyridin-3-yl)-1H-pyrazol-1-yl)-2-methylpropanenitrile], the IC50 is less than 10 nM in experiment [1], 10 to 100 nM in experiment [2] and less than 10 nM in experiment [3].

With `CCNc1cc2c(cn1)c(-c1cnn(C)c1)nn2[C@H]1CC[C@@H](Oc2cccc(F)c2F)CC1` [Example 374, 1-((1s,4s)-4-(2,3-difluorophenoxy)cyclohexyl)-N-ethyl-3-(1-methyl-1H-pyrazol-4-yl)-1H-pyrazolo[4,3-c]pyridin-6-amine], the IC50 is less than 10 nM in experiment [1], 10 to 100 nM in experiment [2] and less than 10 nM in experiment [3].

For `CNc1cc2c(cn1)c(-c1cnn(C)c1)nn2[C@H]1CC[C@@H](Oc2ccccc2S(C)(=O)=O)CC1` [Example 375, N-methyl-3-(1-methyl-1H-pyrazol-4-yl)-1-((1s,4s)-4-(2-(methylsulfonyl)phenoxy)cyclohexyl)-1H-pyrazolo[4,3-c]pyridin-6-amine], the IC50 in experiment [1] was less than 10 nM; in experiment [2], 10 to 100 nM; in experiment [3] it was less than 10 nM.

Take `CNc1cc2c(cn1)c(-c1cnn(C)c1)nn2[C@H]1CC[C@@H](Oc2cccc3ncccc23)CC1` [Example 377, N-methyl-3-(1-methyl-1H-pyrazol-4-yl)-1-((1s,4s)-4-(quinolin-5-yloxy)cyclohexyl)-1H-pyrazolo[4,3-c]pyridin-6-amine]: the IC50 in experiment [1], in experiment [2] and in experiment [3] was less than 10 nM in each case.

Turning to `CCNc1cc2c(cn1)c(-c1cnn(C)c1)nn2[C@H]1CC[C@@H](Oc2cccc(C#N)c2)CC1` [Example 378, 3-(((1s,4s)-4-(6-(ethylamino)-3-(1-methyl-1H-pyrazol-4-yl)-1H-pyrazolo[4,3-c]pyridin-1-yl)cyclohexyl)oxy)benzonitrile], the values for the 50% inhibitory concentration (IC50) in experiment [1], in experiment [2] and in experiment [3] were less than 10 nM, 10 to 100 nM and less than 10 nM, respectively.

Consider `CCNc1cc2c(cn1)c(-c1cnn(C)c1)nn2[C@H]1CC[C@@H](Oc2cccc(C#N)c2C)CC1` [Example 382, 3-(((1s,4s)-4-(6-(ethylamino)-3-(1-methyl-1H-pyrazol-4-yl)-1H-pyrazolo[4,3-c]pyridin-1-yl)cyclohexyl)oxy)-2-methylbenzonitrile], for which the IC50 in experiment [1], in experiment [2] and in experiment [3] was less than 10 nM throughout.

On to `CNc1cc2c(cn1)c(-c1cnn(C)c1)nn2[C@H]1CC[C@@H](Oc2cccc3ncc(F)cc23)CC1` [Example 384, 1-((1,4s)-4-((3-fluoroquinolin-5-yl)oxy)cyclohexyl)-N-methyl-3-(1-methyl-1H-pyrazol-4-yl)-1H-pyrazolo[4,3-c]pyridin-6-amine], for which the IC50 in experiment [1], in experiment [2] and in experiment [3] was less than 10 nM throughout.

In the case of `CNC(=O)c1ccc(O[C@H]2CC[C@@H](n3nc(-c4cnn(C)c4)c4cnc(NC)cc43)CC2)c(C(F)(F)F)c1` [Example 393, N-methyl-4-(((1s,4s)-4-(3-(1-methyl-1H-pyrazol-4-yl)-6-(methylamino)-1H-pyrazolo[4,3-c]pyridin-1-yl)cyclohexyl)oxy)-3-(trifluoromethyl)benzamide], the IC50 in experiment [1] is less than 10 nM; in experiment [2], 10 to 100 nM; in experiment [3] it was less than 10 nM.

Broadly, the IC50 is the point on the concentration scale where inhibition reaches its midpoint.
